Measurements published in patent EP0513703A2, “Carbamate esters of eseroline having anticholinesterase activity, a process for their preparation and relative pharmaceutical compositions containing them as the active principle” (priority 1991, dated 1992).
“And” between values parts separate entries of the source, which are not always exact repeats. Equal values may be shown once.

Legend:
[1] = target: T1, acetylicholinesterase enzyme in the mouse brain (Mus musculus, UniProt P21836); test: Inhibition of acetylcholinesterase in the mouse brain after single doses (class B derivatives); assay type: in vivo; settings: single doses in the range 0.4-7mg/kg
T1 construct: from tissue; host or cells: mouse brain
T1 sequence (P21836 32-614): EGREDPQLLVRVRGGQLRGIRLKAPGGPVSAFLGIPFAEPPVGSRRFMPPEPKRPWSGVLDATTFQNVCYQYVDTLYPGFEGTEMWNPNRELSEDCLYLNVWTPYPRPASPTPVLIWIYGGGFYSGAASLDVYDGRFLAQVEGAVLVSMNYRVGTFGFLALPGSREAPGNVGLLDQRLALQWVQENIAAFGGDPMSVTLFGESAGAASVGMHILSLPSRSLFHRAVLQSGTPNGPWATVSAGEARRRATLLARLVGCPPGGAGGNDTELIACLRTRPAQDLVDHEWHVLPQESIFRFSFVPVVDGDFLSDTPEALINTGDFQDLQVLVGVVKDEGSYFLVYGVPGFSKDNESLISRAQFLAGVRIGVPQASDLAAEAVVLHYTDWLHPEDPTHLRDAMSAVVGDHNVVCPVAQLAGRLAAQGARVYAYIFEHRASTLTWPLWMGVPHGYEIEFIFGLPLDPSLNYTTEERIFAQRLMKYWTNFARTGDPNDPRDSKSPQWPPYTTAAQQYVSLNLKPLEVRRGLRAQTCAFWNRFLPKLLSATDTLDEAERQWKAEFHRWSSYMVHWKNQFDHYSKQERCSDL

mice = test: Toxicity, LD50 by intraperitoneal route (class B derivatives); assay type: in vivo; settings: death within 24 hours of 50% of the tested animals
Description: In the following table reported are LD50 values determined on mice for the listed compounds and compared with that of physostigmine administered by the same (intraperitoneal) route.

[2] = test system: anticholinesterase activity, on the mouse brain; test: Inhibition of cholinesterase activity on the mouse brain after single doses (class C derivatives); assay type: in vivo; settings: for suppression of the enzymatic activity: even at higher doses; for duration of the inhibitory activity compared with physostigmine: mouse brain; for inhibition of the anticholinesterase activity, on the mouse brain (in words): single doses in the range 0.4-7mg/kg
motor activity = test: Antagonist effect on the stimulating effect of scopolamine (class C derivatives); assay type: in vivo; settings: scopolamine 1 mg/kg; oral administration
Experimental: This is countered by the oral administration of 2.5 mg of ES001, ES002, ES003.

mouse [3] = test: Toxicity, LD50 by intraperitoneal route (class C derivatives); assay type: in vivo
Description: In the following table reported are the LD50 values determined on mouse for the compounds listed and compared with the corresponding LD50 value for physostigmine, administered by the same (intraperitoneal) route.

mice (Swiss strain) [4] = test: Acute toxicity, LD50 by oral route in mice (class A derivatives); assay type: in vivo; settings: mouse, suspension in 2 % carboxymethylcellulose, observation 7 days
Description: The letal doses 50 (LD50) by oral route (suspension in 2 % carboxymethylcellulose) are reported herinbelow: TABLE 1

[5] = test system: acetylcholinesterase (AchE); assay type: in vivo, Wistar male rats; settings: rat, oral, 1.5 to 4.5 mg/kg
mouse [6] = test: Spontaneous motility, Dews method modified according to Carminati (class A derivatives); assay type: in vivo; settings: mouse (Swiss), oral, starting from minimum doses of 4-6 mg/kg
Description: (§1) The Dews method was used, modified according to Carminati (Arch. int. Pharmacodyn. et Thér 181, 68,1969).

mouse [7] = test: Spontaneous motility, Dews method modified according to Carminati (class E derivatives); assay type: in vivo; settings: mouse (Strain Swiss); for decrease of the spontaneous motility (on average): oral, 0.25 mg/kg
Description: as §1

mice (Swiss strain) [8] = test: Acute toxicity, LD50 by oral route in mice (class E derivatives); assay type: in vivo; settings: mouse, suspension in 2 % carboxymethylcellulose, observation 7 days
Description: The letal doses 50 (LD50) by oral route (suspension in 2 % carboxymethylcellulose) are reported herinbelow: TABLE 9

CN1CC[C@@]2(C)c3cc(OC(=O)NCCC(=O)O)ccc3N(C)[C@@H]12 [Compound M001]
inhibition of acetylicholinesterase enzyme in the mouse brain (in words) [1]: dose -dependence, reversible inhibition
LD50 (mg/kg i.p.) (mice): >20 mg/kg i.p. and <40 mg/kg i.p.

CC(CNC(=O)Oc1ccc2c(c1)[C@]1(C)CCN(C)[C@@H]1N2C)C(=O)O (stereo partly drawn) [Compound M002]
inhibition of acetylicholinesterase enzyme in the mouse brain (in words) [1]: dose -dependence, reversible inhibition
LD50 (mg/kg i.p.) (mice): >40 mg/kg i.p. and <80 mg/kg i.p.

CN1CC[C@@]2(C)c3cc(OC(=O)NCCCCCCCCC(=O)O)ccc3N(C)[C@@H]12 [Compound M003]
inhibition of acetylicholinesterase enzyme in the mouse brain (in words) [1]: dose -dependence, reversible inhibition
LD50 (mg/kg i.p.) (mice): >30 mg/kg i.p. and <60 mg/kg i.p.

CN1CC[C@@]2(C)c3cc(OC(=O)NC(CO)C(=O)O)ccc3N(C)[C@@H]12 (stereo partly drawn) [Compound M006]
inhibition of acetylicholinesterase enzyme in the mouse brain (in words) [1]: dose -dependence, reversible inhibition

CN1CC[C@@]2(C)c3cc(OC(=O)NCC(O)CC(=O)O)ccc3N(C)[C@@H]12 (stereo partly drawn) [Compound M007]
inhibition of acetylicholinesterase enzyme in the mouse brain (in words) [1]: dose -dependence, reversible inhibition
LD50 (mg/kg i.p.) (mice): >30 mg/kg i.p. and <60 mg/kg i.p.

CC(CC(=O)O)NC(=O)Oc1ccc2c(c1)[C@]1(C)CCN(C)[C@@H]1N2C (stereo partly drawn) [Compound M008]
inhibition of acetylicholinesterase enzyme in the mouse brain (in words) [1]: dose -dependence, reversible inhibition
LD50 (mg/kg i.p.) (mice): >20 mg/kg i.p. and <40 mg/kg i.p.

CN1CC[C@@]2(C)c3cc(OC(=O)NCCC(O)CC(=O)O)ccc3N(C)[C@@H]12 (stereo partly drawn) [Compound M009]
inhibition of acetylicholinesterase enzyme in the mouse brain (in words) [1]: dose -dependence, reversible inhibition
LD50 (mg/kg i.p.) (mice): >20 mg/kg i.p. and <40 mg/kg i.p.

CC(O)CNC(=O)Oc1ccc2c(c1)[C@]1(C)CCN(C)[C@@H]1N2C (stereo partly drawn) [ES001, trimethyl-1,3a,8 hexahydro-1,2,3a,8,8a-pyrrol(2,3-b)indol-5(3aS,8aR)2-hydroxypropylcarbamate]
suppression of the enzymatic activity [2]: do not completely suppress the enzymatic activity
duration of the inhibitory activity compared with physostigmine [2]: lasts longer than that of physostigmine
inhibition of the anticholinesterase activity, on the mouse brain (in words) [2]: dose-dependence, reversible inhibition
oral dose countering the stimulating effect of scopolamine (motor activity): 2.5 mg
LD50 (mg/kg i.p) (mouse [3]): >20 mg/kg i.p and <40 mg/kg i.p

CCCCCCCC/C=C\CCCCCCCC(=O)OC(C)CNC(=O)Oc1ccc2c(c1)[C@]1(C)CCN(C)[C@@H]1N2C (stereo partly drawn) [ES002, trimethyl-1,3a,8 hexahydro-1,2,3a,8,8a-pyrrol(2,3-b)indol-5(3aS,8aR)-2-oleoxypropylcarbamate]
suppression of the enzymatic activity [2]: do not completely suppress the enzymatic activity
duration of the inhibitory activity compared with physostigmine [2]: lasts longer than that of physostigmine
inhibition of the anticholinesterase activity, on the mouse brain (in words) [2]: dose-dependence, reversible inhibition
oral dose countering the stimulating effect of scopolamine (motor activity): 2.5 mg
LD50 (mg/kg i.p) (mouse [3]): >40 mg/kg i.p and <80 mg/kg i.p

CN1CC[C@@]2(C)c3cc(OC(=O)NCC(C)(O)c4ccccc4)ccc3N(C)[C@@H]12 (stereo partly drawn) [ES004, trimethyl-1,3a,8, hexahydro-1,2,3a, 8,8a-pyrrol (2,3-b) indol-5 (3aS,8aR)-2-hydroxy-2-phenylpropylcarbamate]
LD50 (mg/kg i.p) (mouse [3]): >10 mg/kg i.p and <15 mg/kg i.p

CN1CC[C@@]2(C)c3cc(OC(=O)Nc4ccccc4O)ccc3N(C)[C@@H]12 [ES005, trimethyl-1,3a,8 hexahydro-1,2,3a,8,8a-pyrrol(2,3-b)indol-5(3aS,8aR)-2-hydroxy-phenyl-carbamate]
LD50 (mg/kg i.p) (mouse [3]): >15 mg/kg i.p and <30 mg/kg i.p

CCCCCCCCCCCCCCCCCC(=O)OC(CCCCCC)CNC(=O)Oc1ccc2c(c1)[C@]1(C)CCN(C)[C@@H]1N2C (stereo partly drawn) [ES007, trimethyl-1,3a,8 hexahydro-1,2,3a,8,8a-pyrrol(2,3-b)indol-5-(3aS,8aR)-2-stearoyloxyoctanylcarbamate]
LD50 (mg/kg i.p) (mouse [3]): >40 mg/kg i.p and <80 mg/kg i.p

CN1CC[C@@]2(C)c3cc(OC(=O)NCC(O)CC4CCCCC4)ccc3N(C)[C@@H]12 (stereo partly drawn) [ES008, trimethyl-1,3a,8, hexahydro-1,2,3a,8,-8a pyrrol(2,3-b)indol-5-(3aS,8aR)-3-cyclohexyl-2-hydroxypropylcarbamate]
LD50 (mg/kg i.p) (mouse [3]): >20 mg/kg i.p and <30 mg/kg i.p

CC(C)C[C@H](NC(=O)Oc1ccc2c(c1)[C@]1(C)CCN(C)[C@@H]1N2C)C(=O)O [MGS103, (3-aS-cis) 1,2,3,3a,8,8a-hexahydro 1,3a,8-trimethyl pyrrol [2,3-b]-indol-5-ol-L-2(4-methylvaleric acid) carbamate ester]
LD50 per os (mice (Swiss strain) [4]): 412.6 ± 46.34 mg/kg
inhibitory cerebral and serumal acetylcholinesterase activity (in words) [5]: clear inhibitory dose-dependent and reversible
decrease of the spontaneous motility (on average) (mouse [6]): ~-30%

CC(C)[C@H](NC(=O)Oc1ccc2c(c1)[C@]1(C)CCN(C)[C@@H]1N2C)C(=O)O [MGS104, (3-as-cis) 1,2,3,3a,8,8a-hexahydro 1,3a,8-trimethyl pyrrol [2,3-b]-indol-5-ol-L-(3-methylbutyric acid) carbamate ester]
LD50 per os (mice (Swiss strain) [4]): 423.0 ± 35.21 mg/kg
inhibitory cerebral and serumal acetylcholinesterase activity (in words) [5]: clear inhibitory dose-dependent and reversible
decrease of the spontaneous motility (on average) (mouse [6]): ~-30%

CN1CC[C@@]2(C)c3cc(OC(=O)NCC(=O)O)ccc3N(C)[C@@H]12 [MGS105, (3-as-cis) 1,2,3,3a,8,8a-hexahydro 1,3a,8-trimethyl pyrrol [2,3-b]-indol-5-ol (acetic acid) carbamate ester]
LD50 per os (mice (Swiss strain) [4]): 345.6 ± 24.86 mg/kg
inhibitory cerebral and serumal acetylcholinesterase activity (in words) [5]: clear inhibitory dose-dependent and reversible
decrease of the spontaneous motility (on average) (mouse [6]): ~-30%

CN1CC[C@@]2(C)c3cc(OC(=O)NCCCCCCCCNC(=O)Oc4ccc5c(c4)[C@]4(C)CCN(C)[C@@H]4N5C)ccc3N(C)[C@@H]12 [MS002, Salicylate of (3a S-cis) - 1,2,3a,8,8a hexahydro - 1,3a,- trimethyl pyrrol [2,3-b]-indol-5-ol-1,8-octandicarbamate ester]
oral dose causing a significant decrease of the spontaneous motility (mouse [7]): 0.25 mg/kg
decrease of the spontaneous motility (on average) (mouse [7]): ~-25%
LD50 per os (mice (Swiss strain) [8]): 48.98 ± 6.31 mg/kg

CN1CC[C@@]2(C)c3cc(OC(=O)NCCCCCNC(=O)Oc4ccc5c(c4)[C@]4(C)CCN(C)[C@@H]4N5C)ccc3N(C)[C@@H]12 [MS007, (3a S-cis) - 1,2,3,3a,8,8a hexahydro - 1,3a,8 - trimethyl pyrrol [2,3-b]-indol-5-ol-1,5-pentandicarbamate ester]
oral dose causing a significant decrease of the spontaneous motility (mouse [7]): 0.25 mg/kg
decrease of the spontaneous motility (on average) (mouse [7]): ~-25%
LD50 per os (mice (Swiss strain) [8]): 64.26 ± 10.29 mg/kg

CN1CC[C@@]2(C)c3cc(OC(=O)NCCCCCCNC(=O)Oc4ccc5c(c4)[C@]4(C)CCN(C)[C@@H]4N5C)ccc3N(C)[C@@H]12 [MS010, (3a S-cis) - 1,2,3,3a,8,8a hexahydro - 1,3a,8 - trimethyl pyrrol [2,3-b]-indol-5-ol-1,6-hexandicarbamate ester]
oral dose causing a significant decrease of the spontaneous motility (mouse [7]): 0.25 mg/kg
decrease of the spontaneous motility (on average) (mouse [7]): ~-25%
LD50 per os (mice (Swiss strain) [8]): 50.65 ± 5.48 mg/kg

CN1CC[C@@]2(C)c3cc(OC(=O)NCCCCCCCNC(=O)Oc4ccc5c(c4)[C@]4(C)CCN(C)[C@@H]4N5C)ccc3N(C)[C@@H]12 [MS011, (3a S-cis) - 1,2,3,3a,8,8a hexahydro - 1,3a,8 - trimethyl pyrrol [2,3-b]-indol-5-ol-1,7-heptandicarbamate ester]
oral dose causing a significant decrease of the spontaneous motility (mouse [7]): 0.25 mg/kg
decrease of the spontaneous motility (on average) (mouse [7]): ~-25%
LD50 per os (mice (Swiss strain) [8]): 63.31 ± 9.32 mg/kg
